ChEMBL document CHEMBL2163329, “Tuberculosis: the drug development pipeline at a glance” (Eur J Med Chem, 2012)
Converted amounts (≈) assume the structure as drawn.

Key:
[1] = AUC (0 to infinity) in mouse serum at 100 mg/kg; type: ADME, organism-based; design: time infinity, dose 100 mg/kg
[2] = Half life in mouse serum at 100 mg/kg; type: ADME, organism-based; design: dose 100 mg/kg
[3] = test system: Mycobacterium tuberculosis; assay: Ratio of gatifloxacin MIC to compound MIC for Mycobacterium tuberculosis; type: functional
[4] = test system: Mycobacterium tuberculosis; assay: Antimycobacterial activity against Mycobacterium tuberculosis infected in mouse assessed as log reduction of CFU in lung at 100 mg/kg; type: functional
[5] = Half life in mouse lung at 100 mg/kg; type: ADME, organism-based; design: dose 100 mg/kg
[6] = test system: Mycobacterium tuberculosis; assay: Ratio of moxifloxacin MIC to compound MIC for Mycobacterium tuberculosis; type: functional
[7] = test system: Mycobacterium tuberculosis; assay: Antimycobacterial activity against drug-sensitive Mycobacterium tuberculosis; type: functional
[8] = test system: Mycobacterium tuberculosis; assay: Ratio of levofloxacin MIC to compound MIC for Mycobacterium tuberculosis; type: functional
[9] = AUC (0 to 24 hrs) in monkey at 5 mg/kg; type: ADME, organism-based, Macaca mulatta; design: time < 24 hr, dose 5 mg/kg; conditions: rhesus monkey, plasma
[10] = Cmax in mouse serum at 100 mg/kg; type: ADME, organism-based; design: dose 100 mg/kg
[11] = Cmax in monkey at 5 mg/kg; type: ADME, organism-based, Macaca mulatta; design: dose 5 mg/kg; conditions: rhesus monkey, in vivo
[12] = AUC in mouse at 100 mg/kg; type: ADME, organism-based; design: dose 100 mg/kg; conditions: plasma
[13] = test system: Mycolicibacterium smegmatis; assay: Antimycobacterial activity against Mycobacterium smegmatis; type: functional
[14] = test system: Mycobacterium tuberculosis; assay: Antimycobacterial activity against Mycobacterium tuberculosis; type: functional
[15] = test system: Mycobacterium tuberculosis; assay: Antimycobacterial activity against Mycobacterium tuberculosis infected in macrophages assessed as bacterial growth inhibition at 4 ug/mL; type: functional; conditions: read-out: GI
[16] = AUC in Mycobacterium tuberculosis infected mouse at 2.5 mg/kg; type: ADME, organism-based; design: dose 2.5 mg/kg; conditions: plasma
[17] = test system: Mycobacterium tuberculosis; assay: Antimycobacterial activity against Mycobacterium tuberculosis infected in human assessed as log reduction of bacterial count at 100 to 400 mg, qd for 14 days; type: functional
[18] = Tmax in Mycobacterium tuberculosis infected mouse at 2.5 mg/kg; type: ADME, organism-based; design: dose 2.5 mg/kg; conditions: in vivo
[19] = Tmax in smear positive tuberculosis patient; type: ADME, organism-based; conditions: human, in vivo
[20] = test system: Mycobacterium tuberculosis; assay: Antimycobacterial activity against Mycobacterium tuberculosis clinical isolate; type: functional
[21] = Cmax in human at 400 mg, po; type: ADME, organism-based; design: dose 400 mg, route oral; conditions: in vivo
[22] = test system: Mycobacterium tuberculosis; assay: Antimycobacterial activity against Mycobacterium tuberculosis infected in human assessed as log reduction of bacterial count at 400 mg, qd measured up to 7 days; type: functional
[23] = Cmax in human at 10 mg, po; type: ADME, organism-based; design: dose 10 mg, route oral; conditions: in vivo
[24] = AUC at steady state (0 to 24 hrs) in human at 150 mg, po qd for 14 days; type: ADME, organism-based; design: dose 150 mg, time < 24 hr, route oral; conditions: plasma
[25] = AUC at steady state (0 to 24 hrs) in human at 50 mg, po qd for 14 days; type: ADME, organism-based; design: dose 50 mg, time < 24 hr, route oral; conditions: plasma
[26] = AUC at steady state (0 to 24 hrs) in human at 400 mg, po qd for 14 days; type: ADME, organism-based; design: dose 400 mg, time < 24 hr, route oral; conditions: plasma
[27] = test system: Mycobacterium tuberculosis; assay: Antimycobacterial activity against Mycobacterium tuberculosis H37Rv; type: functional
[28] = test system: Mycobacterium tuberculosis; assay: Antimycobacterial activity against Mycobacterium tuberculosis H37Rv infected in BALB/c mouse assessed as log reduction of CFU in spleen at 300 mg/kg, po administered 6 times per week for 4 weeks; type: functional
[29] = test system: Mycobacterium tuberculosis; assay: Antimycobacterial activity against Mycobacterium tuberculosis H37Rv infected in BALB/c mouse assessed as log reduction of CFU in lung at 300 mg/kg, po administered 6 times per week for 4 weeks; type: functional
[30] = AUC in Mycobacterium tuberculosis H37Rv infected BALB/c mouse at 37.5 to 300 mg/kg, po administered 6 times per week for 4 weeks; type: ADME, organism-based; design: dose 37.5-300 mg/kg, route oral; conditions: plasma
[31] = Cmax in Mycobacterium tuberculosis H37Rv infected BALB/c mouse at 37.5 to 300 mg/kg, po administered 6 times per week for 4 weeks; type: ADME, organism-based; design: dose 37.5-300 mg/kg, route oral; conditions: in vivo
[32] = test system: Mycobacterium tuberculosis; assay: Antimycobacterial activity against Mycobacterium tuberculosis infected in human assessed as log reduction of bacterial count at 400 mg, qd measured up to 2 days; type: functional
[33] = (§1) Tmax in human at 400 mg, po; type: ADME, organism-based; conditions: in vivo, 400 mg
[34] = AUC in human at 400 mg, po; type: ADME, organism-based; conditions: plasma
[35] = Half life in human at 400 mg, po; type: ADME, organism-based; conditions: in vivo
[36] = test system: Mycobacterium tuberculosis; assay: Antimycobacterial activity against Mycobacterium tuberculosis infected in human assessed as log reduction of bacterial count at 300 mg, qd measured up to 2 days; type: functional
[37] = Bioavailability in human; type: ADME, organism-based; conditions: in vivo
Homo sapiens = assay: as §1; type: ADME, organism-based; conditions: in vivo
[38] = Bioavailability in human at 50 mg; type: ADME, organism-based; conditions: in vivo
[39] = Bioavailability in human at 1200 mg; type: ADME, organism-based; conditions: in vivo
[40] = test system: Mycobacterium tuberculosis; assay: Antimycobacterial activity against Mycobacterium tuberculosis infected in mouse administered as qd; type: functional
[41] = AUC in human at 50 to 1500 mg, po; type: ADME, organism-based; conditions: plasma
[42] = Cmax in human at 50 to 1500 mg, po; type: ADME, organism-based; conditions: in vivo
[43] = test system: Mycobacterium tuberculosis; assay: Antimycobacterial activity against Mycobacterium tuberculosis infected in human assessed as log reduction of bacterial count at 200 to 1200 mg; type: functional
[44] = Tmax in human at 50 to 1500 mg, po; type: ADME, organism-based; conditions: in vivo
[45] = test system: Mycobacterium tuberculosis; assay: Antimycobacterial activity against Mycobacterium tuberculosis infected in mouse assessed as log reduction of CFU in lung at 10 to 25 mg/kg after 30 days; type: functional; conditions: dose mg/kg 10-25
[46] = test system: Mycobacterium tuberculosis; assay: Antimycobacterial activity against Mycobacterium tuberculosis infected in mouse assessed as log reduction of CFU in spleen at 10 to 25 mg/kg after 30 days; type: functional; conditions: dose mg/kg 10-25
[47] = Half life in human up to 300 mg, po; type: ADME, organism-based; conditions: in vivo
[48] = Oral bioavailability in mouse at 10 mg/kg; type: ADME, organism-based; conditions: in vivo

COc1c(N2CC3(CC3)[C@](C)(N)C2)c(F)cc2c(=O)c(C(=O)O)cn([C@@H]3C[C@@H]3F)c12
AUC(0-inf) [1]: 14700 ng·h/mL | half-life [2]: 1.51 h | Ratio [3]: 4 | log10cfu [4]: 2 | half-life [5]: 1.93 h | Ratio [6]: 4 | MIC90 [7]: 0.06 µg/mL (≈ 0.143 µM) | Ratio [8]: 4 | AUC(0-t) at 24 h [9]: 16900 ng·h/mL | Cmax [10]: 10300 ng/mL | Cmax [11]: 2200 ng/mL

N#CCC(=O)N1CCC(c2nc(-c3cccs3)no2)CC1
AUC [12]: 82000 ng·h/mL

C[C@@H]1COC2(CCN(c3nc(=O)c4cc(C(F)(F)F)cc([N+](=O)[O-])c4s3)CC2)O1
MIC [13]: 0.004 µg/mL (≈ 0.00927 µM) | MIC [14]: 0.001 µg/mL (≈ 0.00232 µM)

OC1CCN(C2CCN(CC34CC5CC(CC(C5)C3)C4)CC2)CC1
inhibition of growth at 4 µg/mL [15]: 90%

C[C@]1(COc2ccc(N3CCC(Oc4ccc(OC(F)(F)F)cc4)CC3)cc2)Cn2cc([N+](=O)[O-])nc2O1
AUC [16]: 4130 ng·h/mL | log10CFU/ml/day [17]: 0.04 | MIC [7]: 0.006 µg/mL | Tmax [18]: 6 h | Tmax [19]: 4 h

CC(=O)NC[C@H]1CN(c2ccc([S+](C)[O-])cc2)C(=O)O1 (stereo not given in full)
MIC [14]: 0.3 µg/mL (≈ 1.01 µM)

COc1nc2ccc(Br)cc2cc1[C@@H](c1ccccc1)[C@@](O)(CCN(C)C)c1cccc2ccccc12 [BEDAQUILINE]
MIC [20]: 0.03 µg/mL (≈ 0.054 µM) | Cmax [21]: 9000 ng/mL | log10CFU/ml [22]: 0.77 | Cmax [23]: 70 ng/mL | MIC [7]: 0.003 µg/mL | AUC at 24 h [24]: 24000 ng·h/mL | AUC at 24 h [25]: 7900 ng·h/mL | AUC at 24 h [26]: 52000 ng·h/mL | MIC99 [27]: 0.03 µg/mL (≈ 0.054 µM)

C[C@H]1COC2(CCN(c3nc(=O)c4cc(C(F)(F)F)cc([N+](=O)[O-])c4s3)CC2)O1 [BTZ-043]
MIC [13]: 0.004 µg/mL (≈ 0.00927 µM) | log10cfu [28]: 2 | log10cfu [29]: 1 | MIC [14]: 0.001 µg/mL (≈ 0.00232 µM) | AUC at 672 h [30]: 4600 ng·h/mL | Cmax [31]: 2000 ng/mL

CC(=O)NC[C@H]1CN(c2ccc(C(C)=O)cc2)C(=O)O1 [DUP-721]
MIC [14]: 0.3 µg/mL (≈ 1.09 µM)

COc1c(N2CCNC(C)C2)c(F)cc2c(=O)c(C(=O)O)cn(C3CC3)c12 (stereo not given) [GATIFLOXACIN]
MIC90 [20]: 0.007 µg/mL (≈ 0.0186 µM) | log10CFU/ml/day [32]: 0.35 | Tmax [33]: 1.5 h | Cmax [21]: 3400 ng/mL | AUC [34]: 30000 ng·h/mL | half-life [35]: 6.5 h | MIC [27]: 0.12 µg/mL (≈ 0.32 µM)

NNC(=O)c1ccncc1 [ISONIAZID]
log10CFU/ml [22]: 1.88 | log10CFU/ml/day [36]: 0.67

CC(=O)NC[C@H]1CN(c2ccc(N3CCOCC3)c(F)c2)C(=O)O1 [LINEZOLID]
MIC [14]: 0.125 µg/mL (≈ 0.371 µM)

COc1c(N2C[C@@H]3CCCN[C@@H]3C2)c(F)cc2c(=O)c(C(=O)O)cn(C3CC3)c12 [MOXIFLOXACIN]
log10CFU/ml/day [32]: 0.33 | bioavailability [37]: 90% | Tmax (Homo sapiens): 1 h | Cmax [21]: 4300 ng/mL | AUC [34]: 39000 ng·h/mL | MIC [27]: 0.18 µg/mL (≈ 0.448 µM)

O=C([C@@H](O)CO)N1CC=C(c2c(F)cc(N3C[C@H](COc4ccon4)OC3=O)cc2F)CC1 [POSIZOLID]
bioavailability [38]: 100% | bioavailability [39]: < 30%

O=[N+]([O-])c1cn2c(n1)OC[C@@H](OCc1ccc(OC(F)(F)F)cc1)C2 [PRETOMANID]
MBC [40]: 100 mg/kg | minimal effective dose ([40]; Mycobacterium tuberculosis, read-out: MED): 12.5 mg/kg | AUC [41]: 7500 ng·h/mL | MIC [7]: 0.06 µg/mL | Cmax [42]: 300 ng/mL | log10CFU/ml/day [43]: 0.1 | Tmax [44]: 4 h | MIC [27]: 0.039 µg/mL (≈ 0.109 µM)

CO[C@H]1/C=C/O[C@@]2(C)Oc3c(C)c(O)c4c(O)c(c(/C=N/N5CCN(C)CC5)c(O)c4c3C2=O)NC(=O)/C(C)=C\C=C\[C@H](C)[C@H](O)[C@@H](C)[C@@H](O)[C@@H](C)[C@H](OC(C)=O)[C@@H]1C [RIFAMPIN]
log10CFU/ml [22]: 1.7

CC(C)=CCC/C(C)=C/CNCCNC1C2CC3CC(C2)CC1C3 (stereo not given) [SQ109]
log10cfu [45]: 1.5 | log10cfu [46]: 1.5 | half-life [47]: 61 h | MIC [7]: 0.63 µM | bioavailability [48]: 8%

CC(=O)NC[C@H]1CN(c2ccc(N3CCSCC3)c(F)c2)C(=O)O1 [SUTEZOLID]
MIC [7]: 0.03 µg/mL
